Measurements taken from patent US10022422B2, “Peptidomimetic macrocycles” (priority 2009, dated 2018).
Like-named read-outs stand apart in the source and are kept apart here. Where a SMILES comes first, the peptide text is derived from it. Bridges are numbered along the chain shown (N, C = ends). [ ]: non-standard residue; d: D form. R8 = C=CCCCCCC[C@@](C)(N)C(=O)O; S5 = C=CCCC[C@](C)(N)C(=O)O; Nle = CCCC[C@H](N)C(=O)O; Aib = CC(C)(N)C(=O)O

Key:
Figure 6 = assay: Figure 6; design: AUC,all / AUC,inf: concentration or dose not given beside the values
Excerpt: Table printed on a drawing sheet, Figure 6
First reader's note: The head SP-2 is printed shifted to the left of its column of values.

SMILES | AUC,inf [ng·h/mL] | AUC,last [ng·h/mL] | Cl [mL/min/kg] | MRT [h] | T1/2 [h] | Vss [L/kg] | AUC,all (Figure 6) [ng·h/mL] | AUC,inf (Figure 6) [ng·h/mL] | Cl (Figure 6) [mL/min/kg] | Cmax, obs (Figure 6) [ng/mL] | MRT (Figure 6) [h] | T1/2 (Figure 6) [h] | Vss (Figure 6) [L/kg]
CCCC[C@H](NC(C)=O)C(=O)N[C@@H](CC(=O)O)C(=O)N[C@H](C(=O)N[C@@H](CC(N)=O)C(=O)NC(C)(C)C(=O)N[C@H](C(=O)N[C@@H](CC(C)C)C(=O)N[C@@H](CC(C)C)C(=O)N[C@@H](Cc1ccccc1)C(=O)N[C@@]1(C)CCCC=CCCC[C@@](C)(C(=O)N[C@@H](CCC(N)=O)C(N)=O)NC(=O)[C@H](C)NC(=O)[C@H](C(C)C)NC(=O)[C@H](CCCCN)NC1=O)[C@@H](C)O)C(C)C (single isomer, unassigned) [SP-8 IV Dose] | 46700 | 46600 | 1.05 | 2 | 1 | 0.105 |  |  |  |  |  |  | 
CCCC[C@H](NC(C)=O)C(=O)N[C@@H](CC(=O)O)C(=O)N[C@H](C(=O)N[C@@H](CC(N)=O)C(=O)NC(C)(C)C(=O)N[C@H](C(=O)N[C@@H](CC(C)C)C(=O)N[C@@H](CC(C)C)C(=O)N[C@@H](Cc1ccccc1)C(=O)N[C@@]1(C)CCCC=CCCC[C@@](C)(C(=O)N[C@@H](CCC(N)=O)C(N)=O)NC(=O)[C@H](C)NC(=O)[C@H](C(C)C)NC(=O)[C@H](CCCCN)NC1=O)[C@@H](C)O)C(C)C (single isomer, unassigned) [SP-8 Subcutaneous] | 10200 | 9690 | 4.58 | 13 | 10 | 3.629 |  |  |  |  |  |  | 
CCCC[C@H](NC(C)=O)C(=O)N[C@@H](CC(=O)O)C(=O)N[C@H](C(=O)N[C@@H](CC(N)=O)C(=O)N1CCC[C@H]1C(=O)N[C@H](C(=O)N[C@@H](CC(C)C)C(=O)N[C@@H](CC(C)C)C(=O)N[C@@H](Cc1ccccc1)C(=O)N[C@@H](CC(C)C)C(=O)N[C@@H](CCCCN)C(=O)N[C@H](C(=O)N1CCC[C@H]1C(=O)N[C@@H](C)C(=O)N[C@@H](CCC(N)=O)C(N)=O)C(C)C)[C@@H](C)O)C(C)C [SP-1, Ac-NleDVNPTLLFLKVPAQ-NH2] |  |  |  |  |  |  | 1606 | 1616 | 31.22 | 7742 | 0.13 | 0.16 | 0.241
CCCC[C@H](NC(C)=O)C(=O)N[C@@H](CC(=O)O)C(=O)N[C@H](C(=O)N[C@@H](CC(N)=O)C(=O)NC(C)(C)C(=O)N[C@H](C(=O)N[C@@H](CC(C)C)C(=O)N[C@@H](CC(C)C)C(=O)N[C@@H](Cc1ccccc1)C(=O)N[C@@H](CC(C)C)C(=O)N[C@@H](CCCCN)C(=O)N[C@H](C(=O)NC(C)(C)C(=O)N[C@@H](C)C(=O)N[C@@H](CCC(N)=O)C(N)=O)C(C)C)[C@@H](C)O)C(C)C [SP-2, Ac-NleDVNAibTLLFLKVAibAQ-NH2] (Ac-[Nle]DVN[Aib]TLLFLKV[Aib]AQ-NH2) |  |  |  |  |  |  | 3360 | 3385 | 15 | 8145 | 0.41 | 0.33 | 0.366
CCCC[C@H](NC(C)=O)C(=O)N[C@@H](CC(=O)O)C(=O)N[C@H](C(=O)N[C@@H](CC(N)=O)C(=O)NC(C)(C)C(=O)N[C@H](C(=O)N[C@@H](CC(C)C)C(=O)N[C@@H](CC(C)C)C(=O)N[C@@H](Cc1ccccc1)C(=O)N[C@@]1(C)CCCC=CCCC[C@@](C)(C(=O)N[C@@H](CCCNC(=N)N)C(N)=O)NC(=O)[C@H](C)NC(=O)[C@H](C(C)C)NC(=O)[C@H](CCCCN)NC1=O)[C@@H](C)O)C(C)C [SP-6, Ac-NleDVNAibTLLF$KVA$R-NH2] (Ac-[Nle]DVN[Aib]TLLF[S5]KVA[S5]R-NH2; staple 10-14) |  |  |  |  |  |  | 10894 | 10976 | 4.65 | 12564 | 1.25 | 1.29 | 0.348
CCCC[C@H](NC(C)=O)C(=O)N[C@@H](CC(=O)O)C(=O)N[C@H](C(=O)N[C@@H](CC(N)=O)C(=O)NC(C)(C)C(=O)N[C@H](C(=O)N[C@@H](CC(C)C)C(=O)N[C@@]1(C)CCCC=CCCC[C@@](C)(C(=O)N[C@@H](C)C(=O)N[C@@H](C)C(=O)N[C@@H](CCC(N)=O)C(N)=O)NC(=O)[C@H](CCCCN)NC(=O)[C@H](CC(C)C)NC(=O)[C@H](Cc2ccccc2)NC1=O)[C@@H](C)O)C(C)C [SP-9, Ac-NleDVNAibTL$FLK$AAQ-NH2] (Ac-[Nle]DVN[Aib]TL[S5]FLK[S5]AAQ-NH2; staple 8-12) |  |  |  |  |  |  | 8190 | 11950 | 5.67 | 9766 | 1.41 | 1.59 | 0.363
CCCC[C@H](NC(C)=O)C(=O)N[C@@H](CC(=O)O)C(=O)N[C@H](C(=O)N[C@@H](CC(N)=O)C(=O)N1CCC[C@H]1C(=O)N[C@H](C(=O)N[C@@H](CC(C)C)C(=O)N[C@@]1(C)CCCC=CCCC[C@@](C)(C(=O)N[C@@H](C)C(=O)N[C@@H](C)C(=O)N[C@@H](CCC(N)=O)C(N)=O)NC(=O)[C@H](CCCCN)NC(=O)[C@H](CC(C)C)NC(=O)[C@H](Cc2ccccc2)NC1=O)[C@@H](C)O)C(C)C [SP-10, Ac-NleDVNPTL$FLK$AAQ-NH2] (Ac-[Nle]DVNPTL[S5]FLK[S5]AAQ-NH2; staple 8-12) |  |  |  |  |  |  | 5770 | 5800 | 8.85 | 11408 | 0.55 | 0.56 | 0.29
CCCC[C@H](NC(C)=O)C(=O)N[C@@H](CC(=O)O)C(=O)N[C@H](C(=O)N[C@@H](CC(N)=O)C(=O)N1CCC[C@H]1C(=O)N[C@H](C(=O)N[C@@H](CC(C)C)C(=O)N[C@@H](CC(C)C)C(=O)N[C@@H](Cc1ccccc1)C(=O)N[C@@]1(C)CCCC=CCCC[C@@](C)(C(=O)N[C@@H](CCCNC(=N)N)C(N)=O)NC(=O)[C@H](C)NC(=O)[C@H](C(C)C)NC(=O)[C@H](CCCCN)NC1=O)[C@@H](C)O)C(C)C [SP-11, Ac-NleDVNPTLLF$KVA$R-NH2] (Ac-[Nle]DVNPTLLF[S5]KVA[S5]R-NH2; staple 10-14) |  |  |  |  |  |  | 9065 | 9100 | 5.67 | 18748 | 0.52 | 0.54 | 0.178
CCCC[C@H](NC(C)=O)C(=O)N[C@@H](CC(=O)O)C(=O)N[C@H](C(=O)N[C@@H](CC(N)=O)C(=O)NC(C)(C)C(=O)N[C@H](C(=O)N[C@]1(C)CCCCCCC=CCCC[C@@](C)(C(=O)N[C@@H](CCCNC(=N)N)C(N)=O)NC(=O)[C@H](C)NC(=O)[C@H](C(C)C)NC(=O)[C@H](CCCCN)NC(=O)[C@H](CC(C)C)NC(=O)[C@H](Cc2ccccc2)NC(=O)[C@H](CC(C)C)NC1=O)[C@@H](C)O)C(C)C [SP-15, Ac-NlcDVNAibT$r8LFLKVA$R-NH2] (Ac-[Nle]DVN[Aib]T[R8]LFLKVA[S5]R-NH2; staple 7-14) |  |  |  |  |  |  | 23300 | 25410 | 1.97 | 26524 | 1.92 | 1.49 | 0.226
